# Test results reported in patent US20100261711A1, “SELECTIVE ANTICONVULSANT AGENTS AND THEIR USES” (WiSys Technology Foundation, priority 2009, published 2010).
# Marks after values point to notes of the source that are not given here.
# What was measured:
# [1] = test system: minimal motor deficit (ataxia, abnormal gait); assay: Toxicity (TOX), minimal motor deficit, rats; assay type: in vivo; settings: for TOX (Rotorod Test), animals toxic/tested: Rat IP, 100 mg/kg
# [2] = Toxicity (TOX), minimal motor deficit, rats; assay type: in vivo; settings: in vivo; Rat IP
# [3] = test system: minimal muscular or neurological impairment; assay: Toxicity (TOX), rotorod procedure, mice; assay type: in vivo
# [4] = test system: MES-induced seizures; assay: Maximal electroshock test (MES), rats; assay type: in vivo; settings: for MES, animals protected/tested: 30 mg/kg
# [5] = target: T1, GABAA/α1 (α1β3γ2 GABAA receptors) (Homo sapiens, UniProt P14867+P18507); assay: Competitive binding assay, [3H]flunitrazepam; settings: Binding Affinity at GABAA/α1, αxβ3γ2, [3H]flunitrazepam competition
# T1 construct: expressed in transfected cells
# Summary of the method: (§1)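 Bound ligand was collected on 0.3% polyethyleneimine-pretreated GF/C filters with three ice-cold washes and quantified by liquid scintillation counting; membrane protein was determined against a BSA standard.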
# [6] = target: T2, GABAA/α5 (α5β3γ2 GABAA receptors) (Homo sapiens, UniProt P18507+P31644); assay: Competitive binding assay, [3H]flunitrazepam; settings: Binding Affinity at GABAA/α5, αxβ3γ2, [3H]flunitrazepam competition
# T2 construct: expressed in transfected cells
# Summary of the method: as §1
# [7] = test system: 6 Hz psychomotor seizure; assay: Minimal clonic seizure (6 Hz) test; assay type: in vivo; settings: Mice IP; for 6 Hz, animals protected/tested: 100 m/k, 44 mA
# Summary of the method: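 Mice dosed ip with test compound before 6 Hz corneal-type electrical stimulation lasting 3 s. Protection scored as absence of minimal clonic phase and stereotyped automatistic behaviour seen in untreated animals.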
# [8] = test system: kindled motor seizure; assay: Hippocampus kindling screen; assay type: in vivo; settings: Rats IP, 30 mg/kg after 1.0 h
# Description: The hippocampus kindling screen is a useful adjunct to the traditional MES and scMet tests for identification of a substance potential utility for treating complex partial seizures. […] No toxic effects were observed as indicated by the lack of motor impairment on the rats tested.
# [9] = test system: Metrazol-induced clonic seizures; assay: Subcutaneous Metrazol test (scMet), mice; assay type: in vivo
# [10] = test system: MES-induced seizures; assay: Maximal electroshock test (MES), mice; assay type: in vivo
# [11] = Mice, 50 mg/kg PO (Mice IP), 0.5 hr
# [12] = Mice, 50 mg/kg PO (Mice IP), 4.0 hr
smiles,measurement,setting,value
"C#Cc1ccc2c(c1)C(c1ccccc1F)=NCc1c(C(=O)OCC)ncn1-2 [JY-XHe-053 (15), Ethyl-8-acetyleno-6-(2′-fluorophenyl)-4H-benzo[f]imidazo[1,5-a][1,4]diazepine-3-carboxylate]","TOX (Rotorod Test), animals toxic/tested",[1]; 0.5 hr,0/4
same,"TOX (Rotorod Test), animals toxic/tested",[1]; 4.0 hr,0/4
same,"Tox, animals toxic/tested","[1]; Rat PO, 40 mg/kg, 4.0 h",0/4^e
same,"Tox, animals toxic/tested","[1]; Rat PO, 40 mg/kg, 6.0 h",0/4^e
same,"Tox, animals toxic/tested","[1]; Rat PO, 50 mg/kg, 0.5 h",0/4
same,"Tox, animals toxic/tested","[1]; Rat PO, 50 mg/kg, 1.0 h",0/4
same,"Tox, animals toxic/tested","[1]; Rat PO, 50 mg/kg, 2.0 h",0/4
same,"Tox, animals toxic/tested","[1]; Rat PO, 50 mg/kg, 4.0 h",0/4
same,"Tox, animals toxic/tested","[1]; Rat PO, 50 mg/kg, […]",0/4
same,TD50 TOX,"[1]; Rat PO, abnormal gait",>500 mg/kg
same,motor impairment / sedative or locomotor effects,"[1]; rats, oral administration, up to 500 mg/kg",No motor impairment
same,TD50,[2],69.6 mg/kg
same,"TOX (Rotorod Test), animals toxic/tested","[3]; Mice IP, 100 mg/kg, 0.5 hr",6/8
same,"TOX (Rotorod Test), animals toxic/tested","[3]; Mice IP, 100 mg/kg, 4.0 hr",0/4
same,TD50 TOX,"[3]; Mice IP, rotorod",> 400 mg/kg
same,"TOX (Rotorod Test), animals toxic/tested",[3]; [11],0/4
same,"TOX (Rotorod Test), animals toxic/tested",[3]; [12],0/4
same,ED50,[4]; Rat IP,> 30 mg/kg
same,ED50,[4]; Rat PO,> 250 mg/kg
same,"MES, animals protected/tested","[4]; Rat PO, 0.5 h",0/4
same,"MES, animals protected/tested","[4]; Rat PO, 1.0 h",0/4
same,"MES, animals protected/tested","[4]; Rat PO, 2.0 h",0/4
same,"MES, animals protected/tested","[4]; Rat PO, 4.0 h",1/4
same,"MES, animals protected/tested","[4]; Rat PO, 6.0 h",0/4
same,Ki,[5],0.022 µM
same,Ki,[6],0.000671 µM
same,"6 Hz, animals protected/tested",[7]; 0.5 hr,4/4
same,"6 Hz, animals protected/tested",[7]; 1.0 hr,2/4
same,"6 Hz, animals protected/tested",[7]; 2.0 hr,2/4
same,"6 Hz, animals protected/tested",[7]; 4 hr,0/4
same,"6 Hz, animals protected/tested",[7]; […],2/4
same,ED50,"[7]; Mus musculus, ip, 32 mA, read-out: ED50 32 mA (6 Hz test)",39.2 mg/kg
same,"Tox, animals toxic/tested",[8],0/2^b
same,"Afterdischarge Duration, Drug (Low-High)",[8]; pre-drug 30-41,38- s
same,"scMet, animals protected/tested","[9]; Mice IP, 100 mg/kg, 0.5 hr",5/5
same,"scMet, animals protected/tested","[9]; Mice IP, 100 mg/kg, 4.0 hr",0/1
same,"scMet, animals protected/tested",[9]; [11],3/4
same,"scMet, animals protected/tested",[9]; [12],4/4
same,ED50,"[9]; Mus musculus, Mice IP",8.87 mg/kg
same,"MES, animals protected/tested","[10]; Mice IP, 100 mg/kg, 0.5 hr",0/3
same,"MES, animals protected/tested","[10]; Mice IP, 100 mg/kg, 4.0 hr",0/3
same,"MES, animals protected/tested",[10]; [11],1/4
same,"MES, animals protected/tested",[10]; [12],0/4
same,ED50,"[10]; Mus musculus, Mice IP",> 200 mg/kg
